Our source for the Ki and IC50 values is PMC11042424, “Development of a First-in-Class RIPK1 Degrader to Enhance Antitumor Immunity” (Research Square, 2024).

The assay has as its target T1, nLuc-RIPK1 fusion protein (Homo sapiens, UniProt Q13546).
T1 construct: expressed in transfected cells
T1 sequence (Q13546 1-671): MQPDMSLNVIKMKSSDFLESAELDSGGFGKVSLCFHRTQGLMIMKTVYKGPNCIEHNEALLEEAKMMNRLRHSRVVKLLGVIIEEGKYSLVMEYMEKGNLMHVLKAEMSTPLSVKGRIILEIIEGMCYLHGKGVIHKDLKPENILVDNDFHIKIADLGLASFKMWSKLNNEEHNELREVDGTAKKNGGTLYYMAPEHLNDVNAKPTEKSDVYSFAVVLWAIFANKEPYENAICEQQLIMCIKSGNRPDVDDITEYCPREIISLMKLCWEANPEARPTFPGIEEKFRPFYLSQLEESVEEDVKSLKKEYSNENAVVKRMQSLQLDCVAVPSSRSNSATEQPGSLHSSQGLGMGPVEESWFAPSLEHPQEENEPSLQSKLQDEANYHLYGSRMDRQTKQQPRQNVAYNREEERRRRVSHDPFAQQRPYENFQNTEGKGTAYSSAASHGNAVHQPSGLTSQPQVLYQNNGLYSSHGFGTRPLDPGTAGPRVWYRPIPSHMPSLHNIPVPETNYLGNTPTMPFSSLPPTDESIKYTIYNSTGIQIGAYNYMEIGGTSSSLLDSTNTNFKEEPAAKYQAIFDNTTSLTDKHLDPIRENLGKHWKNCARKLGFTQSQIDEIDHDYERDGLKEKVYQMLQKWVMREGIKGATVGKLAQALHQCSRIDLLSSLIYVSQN
The experiment in a line: NanoBRET based in-cell RIPK1 target engagement. The protocol:
Figure 2 LD4172, a RIPK1 PROTAC, induces potent and highly specific degradation of RIPK1 in a panel of cell lines. A, Chemical structures of RIPK1 PROTAC, LD4172, and its negative control, LD4172-NC. […] B, Quantification of RIPK1 levels in both Jurkat and B16F10 cells treated with LD4172 at indicated concentrations for 24 h, followed by Western blotting. C, DC50 and Dmax of LD4172 in various human and mouse cell lines. DC50, the drug concentration causing 50% protein degradation; Dmax, the maximum level of protein degradation. D, RIPK1 degradation kinetics induced by LD4172 treatment (1 μM) and resynthesis kinetics upon washout of LD4172 in both Jurkat and B16F10 cells. E, Quantification of D. The degradation half-life of RIPK1 induced by LD4172 (1 μM) is <2 h in Jurkat and B16F10 cells. […] F, NanoBRET based in-cell RIPK1 target engagement. HEK293 cells were transfected with a plasmid expressing nLuc-RIPK1 fusion protein for 24 h, followed by incubating with a RIPK1 NanoBRET tracer (500 nM) and different concentrations of LD4172 and LD4172-NC (n=3). G, Time-resolved fluorescence resonance energy transfer (TR-FRET) based biochemical binding assay for RIPK1. GST-tagged human RIPK1 (1 nM), Tb-labeled anti-GST antibody (0.3 nM), a RIPK1 TR-FRET tracer (350 nM) and different concentrations of LD4172 (n=3) were incubated for 2 hours, followed by TR-FRET measurements with an excitation wavelength at 340 nm and emission wavelengths at 495 and 520 nm. H, NanoBRET based in-cell assay for ternary complex formation. HEK293T cells were co-transfected with nLuc-RIPK1 and VHL-HaloTag plasmids for 24 h, followed by treatment with indicated concentrations of LD4172 or LD4172-NC (n=3). I, LD4172 induced RIPK1 degradation depends on ternary complex formation, neddylation and proteasome activity. Representative immunoblots of RIPK1 in both Jurkat and B16F10 cells. Cells were treated with RIPK1 inhibitor (T2I), VHL ligand, a neddylation inhibitor (MLN4924) or a proteasome inhibitor (Carfilzomib) at indicated concentrations for 4 hours, followed by LD4172 treatment for 4 hours. J, Proteome profiling of LD4172 induced protein degradation. MDA-MB- 231 cells were treated with LD4172 (200 nM) or LD4172-NC (200 nM) for 6 h (n=3). In total, ~10,000 proteins were quantified in the proteomics experiment. […] Blue dots represent kinases that are inhibited by the warhead of LD4172 but not degraded by LD4172.
To elucidate the formation of a binary complex during RIPK1 degradation, we developed a competitive NanoBRET (Nano-Bioluminescence Resonance Energy transfer)-based target engagement (TE) assay to quantify the binding between RIPK1 and LD4172 in cells[12],[13]. First, we developed a RIPK1 tracer by conjugating the LD4172 warhead T2I with a BODIPY-590 fluorescent dye, dubbed T2–590 (refer to Supporting Information for details). The dissociation equilibrium constant (Kd) between the tracer and RIPK1 was determined to be 0.5 μM by titrating the tracer in HEK293T cells expressing a nLuc-RIPK1 fusion protein. […] This is usually expected, considering that the large molecular weight of LD4172 may lead to poor cellular permeability.
For orientation: BRET reads energy transfer from a luciferase to a nearby fluorophore.

Like-named read-outs stand apart in the source and are kept apart here.

By IC50 is commonly meant the concentration that inhibits the measured activity by half.

With `Cc1ncsc1-c1ccc([C@H](C)NC(=O)[C@@H]2C[C@@H](O)CN2C(=O)[C@@H](NC(=O)CCCCCCCCCCC(=O)NCCCn2cc(-c3ccc4c(c3)CCN4C(=O)Cc3cccc(OC(F)(F)F)c3)c3c(N)ncnc32)C(C)(C)C)cc1` [LD4172], the Ki (Cheng-Prusoff equation, read-out: apparent Ki between compound and RIPK1 in the cells) is 1.9 µM. Also, the concentration for half-maximal inhibition (IC50) is 3750 nM (HEK293 cells, tracer 500 nM, n=3, read-out: IC50 (nM), Fig. 2F) and 3700 nM (tracer concentration at its Kd value, read-out: IC50, competition with tracer).
